According to patent publication US20030032581A1, “Pharmaceuticals for treating obesity” (priority 1999, published 2003):
Marks after values point to notes of the source that are not given here.

Tests used:
3T3-L1 cells = assay: 3T3-L1 preadipocyte differentiation (aP2 expression); format: cell-based; conditions: Mus musculus, 3T3-L1, 120 h; 100 nM rosiglitazone, 5 days; read-out: IC50, block of rosiglitazone stimulated aP2 expression
Procedure: 3T3-L1 cells were obtained from American Type Culture Collection. Passage numbers 3 to 9 were used in all the studies. Monolayer fibroblasts were maintained in medium A (Dulbecco's modified Eagle's medium with 10% fetal calf serum, 100 units/ml penicillin, and 100 μg/ml streptomycin) at 37° C. in 5% CO2. […] Total RNA was prepared using Ultraspec™ RNA isolation system (Biotecx, Houston, Tex.). RNA concentration was quantitated by absorbance at 260 nm. Equal amount of RNA samples were denatured in formamide/formaldehyde and applied to Hybond™-N membranes (Amersham) using a slot blot apparatus (BioRad). Prehybridization was performed at 42° C. for 1-3 h in 40-50% formamide in a solution containing 25 mM sodium phosphate, pH 7.4, 0.9 M sodium chloride, 50 mM sodium citrate, 0.1% each of gelatin, ficoll, and polyvinylpyrollidone, 0.5% SDS, and 100 μg/ml denatured salmon sperm DNA. Hybridization was carried out at the same temperature for 20h in the same solution with ^32P-labeled aP2 cDNA probe (2×10^6 cpm/ml). After washing the membranes under appropriately stringent conditions, the hybridization signals were analyzed with a Phosphorlmager (Molecular Dynamics).

fat-fed C57BL/6J mice = assay: Fat-fed C57BL/6J mice, obesity and metabolic parameters; format: in vivo; conditions: HF diet + 50 mg/kg/day
Procedure: At the end of that time the animals had gained 16g, 22 g and 20.5 g, respectively (FIG. 3). […] Analysis of whole body triglyceride content and protein content were performed as described in Moller et al (Endocrinology 137:2397-2405, 1996). […] Thus, treatment with the PPARγ antagonist caused relative decreases in body adiposity and increases in lean body mass in fat fed mice. The plasma levels of glucose, triglycerides and free fatty acid levels were all increased in the HF group relative to the LF group (see Table below).

ob/ob mice = assay: ob/ob mice, plasma insulin; format: in vivo; conditions: once daily dosing
From the text: The PPAR-gamma antagonists/partial agonists are therefore effective in treating the obesity and other symptoms that generally occur in non-insulin dependent diabetes, such as elevated levels of glucose, triglycerides, and insulin in the plasma.

Which results are given for `O=C(O)c1c(Sc2ccccc2)c2cc(Cl)ccc2n1Cc1ccc(Cl)cc1` [Compound I, 1-(p-chlorobenzyl)-5-chloro-3-thiophenylindole-2-carboxylic acid]?
IC50 (3T3-L1 cells): ~300 nM; body weight gained (fat-fed C57BL/6J mice; 72 days): 20.5 g; Plasma free fatty acids (fat-fed C57BL/6J mice; mean +/- SE of 10 mice): 0.536 +/− 0.02* mM; Plasma glucose (fat-fed C57BL/6J mice; mean +/- SE of 10 mice): 145.6 +/− 4.1* mg/dl; Plasma triglycerides (fat-fed C57BL/6J mice; mean +/- SE of 10 mice): 71.4 +/− 4.1** mg/dl; Serum insulin (fat-fed C57BL/6J mice; mean +/- SE of 10 mice): 1.35 ± 0.21 ng/mL; reduction in elevated levels of mean plasma insulin (ob/ob mice): 30-50%
